Assay results taken from ChEMBL document CHEMBL1134946, “Synthesis and NK(1)/NK(2) binding activities of a series of diacyl-substituted 2-arylpiperazines” (Bioorg Med Chem Lett, 2002).

Columns and labels:
Substance-P receptor [1] = molecular target: Substance-P receptor (Homo sapiens, UniProt P25103); test: Binding affinity in membrane preparations containing recombinant human Tachykinin receptor 1 in CHO cells by using [3H]-Sar SP as the radioligand.; format: cell membranes
Substance-K receptor [2] = molecular target: T1, Substance-K receptor (Homo sapiens, UniProt P21452); test: Binding affinity in membrane preparations containing recombinant human Tachykinin receptor 2 in CHO cells by using [3H]NKA as the radioligand.; format: cell membranes
T1 sequence (P21452 whole entry): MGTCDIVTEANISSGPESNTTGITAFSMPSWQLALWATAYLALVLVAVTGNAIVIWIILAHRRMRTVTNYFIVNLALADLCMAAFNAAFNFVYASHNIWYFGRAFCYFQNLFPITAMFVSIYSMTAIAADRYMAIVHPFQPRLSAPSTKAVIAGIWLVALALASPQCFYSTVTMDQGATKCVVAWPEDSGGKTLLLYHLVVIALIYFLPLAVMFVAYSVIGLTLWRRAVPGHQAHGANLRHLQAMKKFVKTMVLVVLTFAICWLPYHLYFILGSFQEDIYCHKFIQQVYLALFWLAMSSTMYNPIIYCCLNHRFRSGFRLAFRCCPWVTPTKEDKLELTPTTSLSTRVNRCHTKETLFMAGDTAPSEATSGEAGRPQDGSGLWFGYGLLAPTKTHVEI

Substance-P receptor [3] = molecular target: Substance-P receptor (Cavia porcellus, UniProt P30547); test: Inhibition of the SP-induced NK1-mediated enhancement of the EFS-induced sympathetic neurogenic contractions of gpvd, used as a measure of antagonist activity.; format: functional; details: read-out: pA2 (converted)
Substance-K receptor [4] = molecular target: T2, Substance-K receptor (Mesocricetus auratus, UniProt P51144); test: Inhibition of NKA-induced airway contraction of isolated hamster trachea (ht) was used as a measure of NK2-receptor antagonist activity.; format: functional, tissue-based; details: read-out: pA2 (converted)
T2 sequence (P51144 whole entry): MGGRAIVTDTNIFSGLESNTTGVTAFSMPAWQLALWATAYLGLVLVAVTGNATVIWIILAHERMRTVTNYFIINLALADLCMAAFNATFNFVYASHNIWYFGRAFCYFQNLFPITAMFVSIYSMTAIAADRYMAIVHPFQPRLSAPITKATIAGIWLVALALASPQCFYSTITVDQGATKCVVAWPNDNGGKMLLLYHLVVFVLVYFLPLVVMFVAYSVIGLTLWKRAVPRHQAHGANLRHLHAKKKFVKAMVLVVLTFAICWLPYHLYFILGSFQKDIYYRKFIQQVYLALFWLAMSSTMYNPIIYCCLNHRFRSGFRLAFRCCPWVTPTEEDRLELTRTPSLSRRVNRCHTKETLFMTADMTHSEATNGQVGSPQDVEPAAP

Substance-P receptor (Cavia porcellus, UniProt P30547), sequence (P30547 whole entry): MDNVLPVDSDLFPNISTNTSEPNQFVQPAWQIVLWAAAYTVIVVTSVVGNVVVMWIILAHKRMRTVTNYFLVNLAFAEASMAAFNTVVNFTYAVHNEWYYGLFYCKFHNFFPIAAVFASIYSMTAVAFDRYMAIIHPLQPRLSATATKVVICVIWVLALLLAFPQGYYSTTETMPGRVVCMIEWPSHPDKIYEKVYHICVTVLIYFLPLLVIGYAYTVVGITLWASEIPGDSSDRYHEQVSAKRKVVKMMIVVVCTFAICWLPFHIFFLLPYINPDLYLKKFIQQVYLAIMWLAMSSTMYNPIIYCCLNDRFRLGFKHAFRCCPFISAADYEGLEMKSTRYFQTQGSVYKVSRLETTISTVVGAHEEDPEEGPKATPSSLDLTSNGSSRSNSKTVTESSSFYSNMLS
Substance-P receptor (Homo sapiens, UniProt P25103), sequence (P25103 whole entry): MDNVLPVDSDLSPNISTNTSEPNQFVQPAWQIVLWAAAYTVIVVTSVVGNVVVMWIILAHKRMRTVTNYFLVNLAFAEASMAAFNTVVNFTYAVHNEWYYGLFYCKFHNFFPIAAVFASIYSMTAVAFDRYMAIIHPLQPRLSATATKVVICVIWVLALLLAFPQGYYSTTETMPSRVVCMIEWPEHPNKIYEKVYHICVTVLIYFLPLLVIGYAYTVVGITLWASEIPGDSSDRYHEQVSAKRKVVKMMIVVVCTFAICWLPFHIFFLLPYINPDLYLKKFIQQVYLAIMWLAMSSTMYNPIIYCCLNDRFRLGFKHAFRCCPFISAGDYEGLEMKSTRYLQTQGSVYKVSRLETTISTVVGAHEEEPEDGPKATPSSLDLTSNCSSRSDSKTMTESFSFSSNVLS

Row | SMILES | Ki (Substance-P receptor [1]) | Ki (Substance-K receptor [2]) | Kb (Substance-P receptor [3]) | Kb (Substance-K receptor [4])
1 | Cc1cc(C)cc(C(=O)N2CCN(C(=O)CNC3CCN(C(=O)[C@@H](N)c4ccccc4)CC3)[C@H](c3ccc(Cl)c(Cl)c3)C2)c1 | 42 nM | 1.1 nM | – | –
2 | Cc1cc(C)cc(C(=O)N2CCN(C(=O)CNC3CCNCC3)[C@H](c3ccc(Cl)c(Cl)c3)C2)c1 | 215 nM | 20 nM | – | –
3 | CN1CCN(C(=O)CNC2CCN(Cc3ccccc3)CC2)C(c2ccccc2)C1 (centres undefined) | 135 nM | > 1000 nM | – | –
4 | O=C(Cc1cc(C(F)(F)F)cc(C(F)(F)F)c1)N1CCN(C(=O)CNC2CCN(Cc3ccccc3)CC2)C(c2ccccc2)C1 (centres undefined) | 136 nM | > 1000 nM | – | –
5 | CC(=O)Nc1nc(CN2CCC(NCC(=O)N3CCN(C(=O)c4cc(C)cc(C)c4)C[C@H]3c3ccc(Cl)c(Cl)c3)CC2)cs1 | 52 nM | 0.9 nM | – | –
6 | Cc1cc(C)cc(C(=O)N2CCN(C(=O)CNC3CCN(C(=O)[C@H](N)Cc4c[nH]c5ccccc45)CC3)[C@H](c3ccc(Cl)c(Cl)c3)C2)c1 | 70 nM | 28 nM | – | –
7 | O=C(CNC1CCN(Cc2ccccc2)CC1)N1CCN(Cc2cc(C(F)(F)F)cc(C(F)(F)F)c2)CC1c1ccc(Cl)c(Cl)c1 (centres undefined) | 30 nM | 175 nM | – | –
8 | O=C(CN1CCC(O)(c2ccccc2)CC1)N1CCN(Cc2cc(C(F)(F)F)cc(C(F)(F)F)c2)CC1c1ccccc1 (centres undefined) | 13 nM | > 1000 nM | – | –
9 | O=C(CN1CCC(Cc2ccccc2)CC1)N1CCN(Cc2cc(C(F)(F)F)cc(C(F)(F)F)c2)CC1c1ccc(Cl)c(Cl)c1 (centres undefined) | 110 nM | > 1000 nM | – | –
10 | CC(=O)NC1(c2ccccc2)CCN(CC(=O)N2CCN(Cc3cc(C(F)(F)F)cc(C(F)(F)F)c3)CC2c2ccccc2)CC1 (centres undefined) | 48 nM | > 1000 nM | – | –
11 | Cc1cc(C)cc(C(=O)N2CCN(C(=O)CNC3CCN(C(=O)[C@H](N)Cc4ccc(O)cc4)CC3)[C@H](c3ccc(Cl)c(Cl)c3)C2)c1 | 32 nM | 7 nM | – | –
12 | O=C(CN1CCN(Cc2ccccc2)CC1)N1CCN(Cc2cc(C(F)(F)F)cc(C(F)(F)F)c2)CC1c1ccc(Cl)c(Cl)c1 (centres undefined) | 28 nM | > 1000 nM | – | –
13 | O=C(CN1CCN(Cc2ccccc2)CC1)N1CCN(Cc2cc(C(F)(F)F)cc(C(F)(F)F)c2)CC1c1ccccc1 (centres undefined) | 48 nM | > 1000 nM | – | –
14 | O=C(CN1CCC(Cc2ccccc2)CC1)N1CCN(Cc2cc(C(F)(F)F)cc(C(F)(F)F)c2)CC1c1ccccc1 (centres undefined) | 37 nM | > 1000 nM | – | –
15 | O=C(CNC1CCN(Cc2ccccc2)CC1)N1CCN(Cc2cc(C(F)(F)F)cc(C(F)(F)F)c2)CC1c1ccccc1 (centres undefined) | 17 nM | 300 nM | – | –
16 | O=C(CN1CCC(O)(c2ccccc2)CC1)N1CCN(Cc2cc(C(F)(F)F)cc(C(F)(F)F)c2)CC1c1ccc(Cl)c(Cl)c1 (centres undefined) | 32 nM | > 1000 nM | – | –
17 | CC(=O)NC1(c2ccccc2)CCN(CC(=O)N2CCN(Cc3cc(C(F)(F)F)cc(C(F)(F)F)c3)CC2c2ccc(Cl)c(Cl)c2)CC1 (centres undefined) | 148 nM | > 1000 nM | – | –

Results, then the compound that gave them:

Row | Ki (Substance-P receptor [1]) | Ki (Substance-K receptor [2]) | Kb (Substance-P receptor [3]) | Kb (Substance-K receptor [4]) | SMILES
18 | > 1000 nM | > 1000 nM | – | – | COc1cc(CC(=O)N2CCN(C(=O)CNC3CCN(Cc4ccccc4)CC3)C(c3ccc(Cl)c(Cl)c3)C2)cc(OC)c1OC (centres undefined)
19 | 3.2 nM | 14 nM | – | – | O=C(c1cc(Br)cc(Br)c1)N1CCN(C(=O)CNC2CCN(Cc3ccccc3)CC2)C(c2ccc(Cl)c(Cl)c2)C1 (centres undefined)
20 | 21 nM | 3.2 nM | – | – | Cc1cc(C)cc(C(=O)N2CCN(C(=O)CNC3CCN(C(=O)[C@@H](N)Cc4ccccc4)CC3)[C@H](c3ccc(Cl)c(Cl)c3)C2)c1
21 | 35 nM | 1.3 nM | – | – | Cc1cc(C)cc(C(=O)N2CCN(C(=O)CNC3CCN(Cc4cc[nH]c4)CC3)[C@H](c3ccc(Cl)c(Cl)c3)C2)c1
22 | 143 nM | 16 nM | – | – | Cc1cc(C)cc(C(=O)N2CCN(C(=O)CNC3CCN(C(=O)[C@H](N)c4ccccc4)CC3)[C@H](c3ccc(Cl)c(Cl)c3)C2)c1
23 | 23 nM | 22 nM | – | – | O=C(c1cc(F)cc(F)c1)N1CCN(C(=O)CNC2CCN(Cc3ccccc3)CC2)C(c2ccc(Cl)c(Cl)c2)C1 (centres undefined)
24 | 92 nM | 3 nM | – | – | Cc1cc(C)cc(C(=O)N2CCN(C(=O)CNC3CCN(Cc4ncc[nH]4)CC3)[C@H](c3ccc(Cl)c(Cl)c3)C2)c1
25 | 11 nM | 1.1 nM | – | – | Cc1cc(C)cc(C(=O)N2CCN(C(=O)CNC3CCN(C(=O)[C@H](N)Cc4ccccc4)CC3)[C@H](c3ccc(Cl)c(Cl)c3)C2)c1
26 | 15 nM | 1.3 nM | – | – | CC(=O)Nc1ccc(CN2CCC(NCC(=O)N3CCN(C(=O)c4cc(C)cc(C)c4)C[C@H]3c3ccc(Cl)c(Cl)c3)CC2)cc1
27 | 7.7 nM | 14 nM | – | – | O=C(c1cc(Cl)cc(Cl)c1)N1CCN(C(=O)CNC2CCN(Cc3ccccc3)CC2)C(c2ccc(Cl)c(Cl)c2)C1 (centres undefined)
28 | – | – | 316 nM | 316 nM | Cc1cc(C)cc(C(=O)N2CCN(C(=O)CNC3CCN(Cc4ccccc4)CC3)C(c3ccc(Cl)c(Cl)c3)C2)c1 (centres undefined)
29 | 112 nM | 124 nM | – | – | COc1cc(C(=O)N2CCN(C(=O)CNC3CCN(Cc4ccccc4)CC3)C(c3ccc(Cl)c(Cl)c3)C2)cc(OC)c1OC (centres undefined)
30 | 7.1 nM | 27 nM | – | – | COc1cc(OC)cc(C(=O)N2CCN(C(=O)CNC3CCN(Cc4ccccc4)CC3)C(c3ccc(Cl)c(Cl)c3)C2)c1 (centres undefined)
31 | – | – | 6.31 nM | – | Cc1cc(C)cc(C(=O)N2CCN(C(=O)CNC3CCN(Cc4ccccc4)CC3)[C@@H](c3ccc(Cl)c(Cl)c3)C2)c1
32 | > 1000 nM | > 1000 nM | – | – | O=C(c1cc(O)cc(O)c1)N1CCN(C(=O)CNC2CCN(Cc3ccccc3)CC2)C(c2ccc(Cl)c(Cl)c2)C1 (centres undefined)
33 | – | – | 79.4 nM | – | O=C(c1cc(C(F)(F)F)cc(C(F)(F)F)c1)N1CCN(C(=O)CNC2CCN(Cc3ccccc3)CC2)C(c2ccc(Cl)c(Cl)c2)C1 (centres undefined)
